For experiment [1], the target named is T1, 17,20beta-P membrane receptor (ovarian membrane progestin receptor, mPR).
T1 construct: gene paqr7; native receptor in crude ovarian plasma membrane fraction (20,000 g pellet)
The experiment in a line: competition with [3H]-17, […]β-P, filtration assay. In kind it is binding, Salvelinus alpinus. Particulars: 7 nM [3H]-17,20β-P, ovarian membranes, pH 7.4, +4°C, 30 min; read-out: Concentration (nM) causing 50% displacement.

Experiment [2] shares this target. The experiment is described as follows: radioligand saturation, filtration assay, Scatchard. In kind it is binding, Salvelinus alpinus. The following applies: labelled compound ([3H]-17,20β-P); ovarian membranes, pH 7.4, +4°C, 30 min.

As for `C[C@]12CCC(=O)C=C1CC[C@@H]1[C@@H]2CC[C@@]2(C)[C@H]1CC[C@]2(O)C(=O)CO` [DC, 11-deoxycortisol], the IC50 in experiment [1] was found to be 207 nM.
Still for that read-out and setting: under `CC(=O)[C@H]1CC[C@H]2[C@@H]3CCC4=CC(=O)CC[C@]4(C)[C@H]3CC[C@]12C` [P4, progesterone] stands 52.6 nM; under `CC(=O)[C@@]1(O)CC[C@H]2[C@@H]3CCC4=CC(=O)CC[C@]4(C)[C@H]3CC[C@@]21C` [17α-OH-P, 17α-hydroxyprogesterone], 69.3 nM.
For `C[C@]12CC[C@@H]3c4ccc(O)cc4CC[C@H]3[C@@H]1CC[C@@H]2O` [E2, 17β-estradiol], the IC50 in experiment [1] was 37.9 nM.
Same read-out and setting: the same measure for ZK 112992: 1180 nM; for `C[C@]12CC[C@H]3[C@@H](CCC4=CC(=O)CC[C@@]43C)[C@@H]1CC[C@@H]2C(=O)CO` [11-DOC, 11-deoxycorticosterone]: 132 nM.
With `CN(C)c1ccc([C@H]2C[C@]3(C)[C@@H](CC[C@]3(O)CCCO)[C@@H]3CCC4=CC(=O)CCC4=C32)cc1` [ZK 98299], the IC50 in experiment [1] was 12900 nM.
The same measure, in the same setting: under `C[C@]12CCC(=O)C=C1CC[C@@H]1[C@@H]2[C@@H](O)C[C@@]2(C)[C@H]1CC[C@]2(O)C(=O)CO` [F, cortisol] stands 14400 nM; under `Clc1ccc(C(c2ccccc2Cl)C(Cl)Cl)cc1` (stereo not drawn) [o,p'-DDD], 549 nM.
Take `C[C@@H](O)[C@@]1(O)CC[C@H]2[C@@H]3CCC4=CC(=O)CC[C@]4(C)[C@H]3CC[C@@]21C` [17,20β-P, 17,20beta-dihydroxy-4-pregnen-3-one]: the dissociation constant Kd (as a rule, the free concentration of one partner at which half of the binding sites on the other are occupied at equilibrium, for simple one-to-one binding) in experiment [2] was 13.8 ± 1.1 nM. In addition, in experiment [1], the IC50 turned out to be 1.25 nM.
Consider `C[C@]12CC[C@H]3[C@@H](CCC4=CC(=O)CC[C@@]43C)[C@@H]1CC[C@@H]2O` [T, testosterone], for which, in experiment [1], the IC50 came to 18300 nM.
Still for that read-out and setting: under `C[C@]12CCC(=O)C=C1CC[C@@H]1[C@@H]2CC[C@@]2(C)[C@H]1CC[C@]2(O)[C@H](O)CO` [20β-S, 17, 20β, 21-trihydroxy-4-pregnen-3-one] stands 145 nM.
Take `CC(C)C(=O)Nc1ccc([N+](=O)[O-])c(C(F)(F)F)c1` [Flutamide]: in experiment [1], the IC50 is 256 nM.
With `Clc1ccc(C(c2ccccc2Cl)C(Cl)(Cl)Cl)cc1` (stereo not drawn) [o,p'-DDT], the IC50 in experiment [1] is 378 nM.

Source of the values: paper PMC1298333, “Biochemical characterization of the Arctic char (Salvelinus alpinus) ovarian progestin membrane receptor” (Reproductive biology and endocrinology : RB&E, 2005).
